US20250313546A1, “NUCLEIC ACID BINDERS” (UNIVERSITY OF STRATHCLYDE, priority 2022, published 2025)
≈ marks a conversion by molar mass, not a printed value.

Tests used:
[1] = tested on: Staphylococcus aureus (ATCC 43300); test: Antibacterial MIC, broth microdilution (CLSI); format: cell-based; settings: for S. aureus Selectivity Indices, Group: SI, IC50 (μM)/MIC80 (μM), HEK293 cytotoxicity, Alkyl Amidines and NH Pyrroles; for MIC80: Staphylococcus aureus, ATCC43300, read-out: MIC80 S. aureus
[2] = tested on: Enterococcus faecalis (ATCC 51299); test: Antibacterial MIC, broth microdilution (CLSI); format: cell-based; settings: for MIC80: Enterococcus faecalis, ATCC51299, read-out: MIC80 E. faecalis; for E. faecalis Selectivity Indices, Group: Alkyl Amidines and NH Pyrroles
[3] = tested on: Escherichia coli (ATCC 25922); test: Antibacterial MIC, broth microdilution (CLSI); format: cell-based; settings: Escherichia coli, ATCC25922; read-out: MIC80 E. coli
[4] = tested on: Genomic double stranded DNA (salmon); test: Fluorescence intercalator displacement (FID) assay, SYBR-safe probe; settings: 20 μM compound, 30° C., lower % = stronger binding
Method in brief: (§1)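 Probe displacement was measured at 30 °C in 1 mM phosphate pH 7.4 containing SybrSafe (12500-fold dilution), 3.76 ng/mL nucleic acid (salmon dsDNA or polyAU dsRNA) and 20 μM compound. Fluorescence loss is normalised between probe-only and probe-plus-nucleic-acid controls.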

[5] = tested on: PolyAU double stranded RNA; test: as above; settings: 20 μM compound, 30° C., lower % = stronger binding
Method in brief: as §1

C. albicans (ATCC 90028) = settings: Candida albicans, ATCC90028, read-out: MIC99 C. albicans
Protocol: (§2) The Minimum Inhibitory Concentration (MIC, at 99% inhibition) of the compounds was determined using the broth microdilution method as recommended by EUCAST (EUCAST Definitive Document E.DEF 9.3.2, Method for the determination of broth dilution minimum inhibitory concentrations of antifungal agents for conidia forming moulds and EUCAST Definitive Document E.DEF 7.3.2 Method for the determination of broth dilution minimum inhibitory concentrations of antifungal agents for yeasts).

C. neoformans (F10025) = settings: Cryptococcus neoformans, read-out: MIC99 C. neoformans
[6] = tested on: A. fumigatus A1160 (MFIG001); settings: Aspergillus fumigatus, read-out: MIC99 A. fumigatus A1160
A. flavus (CBS 128.202) = settings: Aspergillus flavus, CBS128, read-out: MIC99 A. flavus
Protocol: as §2

[7] = tested on: Rhizopus arrhizus (NEQAS12.35321); settings: read-out: MIC99 Rhizopus arrhizus
Protocol: as §2

Candida auris (H.17.157) = settings: for MIC99: Candidozyma auris, read-out: MIC99 Candida auris
[8] = tested on: Candida glabrata (ACPF3309); settings: Nakaseomyces glabratus, read-out: MIC99 Candida glabrata
[9] = tested on: Fusarium oxysporum (F7098); settings: read-out: MIC99 Fusarium oxysporum
Protocol: as §2

[10] = tested on: Scedosporium prolificans (F2746); settings: Lomentospora prolificans, read-out: MIC99 Scedosporium prolificans
Protocol: as §2

T. equiperdum = test: Resazurin-based (Alamar blue) drug sensitivity assay; settings: Trypanosoma equiperdum, read-out: IC50 T. equiperdum
Protocol: A detailed description of the procedure for evaluating activity against trypanosomes, using an Alamar Blue (resazurin) assay, is described below.
The bloodstream form (BSF) T. b. brucei s427 (see De Koning, H. P. et al., Mol. Biochem. Parasitol. 2000, 106, 181-185), T. evansi AntTat 3/3 (see Dean, S. et al., Proc. Natl. Acad. Sci. USA, 2013, 110, 14741-14746), and T. equiperdum (see Stewart, M. L. et al., Eukaryot. Cell, 2010, 9, 336-343) were cultured in HMI-9 medium (Life Technologies, Paisley, United Kingdom) supplemented with 10% heat inactivated Foetal Bovine Serum (FBS (PAA Laboratories Linz, Austria)), 14 μL/L β-mercaptoethanol (BDH, Dorset, UK), and 3.0 g/L NaHCO3 (Sigma-Aldrich) and adjusted to pH 7.4. These cell lines were maintained at 37° C. in a humidified, 5% CO2 environment.
A resazurin-based (Alamar blue) drug sensitivity assay was used to assess and compare the activity of standard trypanocides in the different cell lines investigated (see Gould, M. K. et al., Anal. Biochem., 2008, 382, 87-93). Briefly, 23 doubling dilutions of the test compound of the invention, starting at 100 μM, and a compound-free control were prepared in 100 μL medium in a 96-well white plate (Greiner Bio-one, Frickenhausen, Germany). The cells were adjusted to 2×10^4 cells/mL for T. b. brucei and T. equiperdum; 4×10^4 cells/mL for T. evansi; and 5×10^5 cells/mL for T. congolense in the appropriate medium. 100 μL of the adjusted cells was then added to the wells containing drug dilutions and incubated for 48 h under respective culture condition. Thereafter, 20 μL of 125 mg/mL resazurin sodium dye was added, and the plate was incubated for a further 24 h.

T. evansi AntTat 3/3 = test: as above; settings: read-out: IC50 T. evansi
[11] = tested on: SARS-CoV-2 (hCoV-19/Australia/VIC01/2020); test: SARS-CoV-2 microplaque inhibition assay in Vero-E6 cells; format: cell-based; settings: for IC50: Severe acute respiratory syndrome coronavirus 2, Vero C1008, plaque inhibition, Vero-E6 cells, read-out: IC50 SARS-CoV-2
[12] = tested on: Human rhinovirus (HRV-14); test: Viral ToxGlo assay, Hela Ohio cells; format: cell-based; settings: M-HeLa, 72 h
Influenza (H1N1) = test: Accelerated Viral Neuraminidase Inhibition Assay (AVINA), A549 cells; format: cell-based; settings: Influenza A virus, 72 h
T. vaginalis = test: Trichomonas resorufin assay; format: cell-based
[13] = tested on: human respiratory syncytial virus (RSV A2); test: Viral ToxGlo assay, Hep-2 cells; format: cell-based; settings: 72 h
[14] = SI, IC50 (μM)/MIC80 (μM), HEK293 cytotoxicity
[15] = SI, IC50 (μM)/IC50 (μM), HEK293 cytotoxicity, Alkyl Amidines and NH Pyrroles

SMILES	S. aureus Selectivity Indices, Group [1]	MIC80 [1]	MIC80 [2]	E. faecalis Selectivity Indices, Group [2, 14]	MIC80 [3]	% Normalised Fluorescence with gDNA [4]	% Normalised Fluorescence with polyAU RNA [5]	MIC99 (C. albicans (ATCC 90028))	MIC99 (C. neoformans (F10025))	MIC99 [6]	MIC99 (A. flavus (CBS 128.202))	MIC99 [7]	MIC99 (Candida auris (H.17.157))	MIC99 [8]	MIC99 [9]	MIC99 [10]	IC50 (T. equiperdum)	IC50 (T. evansi AntTat 3/3)	IC50 [11]	inhibition at 20 µM [12]	also measured
Cn1cc(NC(=O)c2cc(NC(=O)c3ccc(/C=C/c4ccc5nonc5c4)cc3)c[nH]2)cc1C(=O)NCCC(=N)N [IIIa1, (E)-N-(3-amino-3-iminopropyl)-4-(4-(4-(2-(benzo[c][1,2,5]oxadiazol-5-yl)vinyl)benzamido)-1H-pyrrole-2-carboxamido)-1-methyl-1H-pyrrole-2-carboxamide]	C (Group C: 5 < SI <= 10)	< 5 µM	5 to 25 µM (≈ 2.83 to 14.1 µg/mL)	B (Group B: 3 < SI <= 5)	> 100 µM	17%	18%	25 to 50 µg/mL (≈ 44.2 to 88.4 µM)	< 5 µg/mL	5 to 25 µg/mL (≈ 8.84 to 44.2 µM)	5 to 25 µg/mL (≈ 8.84 to 44.2 µM)	5 to 25 µg/mL (≈ 8.84 to 44.2 µM)	> 50 µg/mL	< 5 µg/mL	5 to 25 µg/mL (≈ 8.84 to 44.2 µM)	5 to 25 µg/mL (≈ 8.84 to 44.2 µM)	10 to 100 nM	10 to 100 nM			
CN(C)c1ccc(/C=C/c2ccc(C(=O)Nc3c[nH]c(C(=O)Nc4cc(C(=O)NCCC(=N)N)n(C)c4)c3)cn2)cc1 [IIIa5, (E)-N-(5-((5-((3-amino-3-iminopropyl)carbamoyl)-1-methyl-1H-pyrrol-3-yl)carbamoyl)-1H-pyrrol-3-yl)-6-(4-(dimethylamino)styryl)nicotinamide]	C (Group C: 5 < SI <= 10)	< 5 µM	5 to 25 µM (≈ 2.84 to 14.2 µg/mL)		> 100 µM	11%	3%	< 5 µg/mL		5 to 25 µg/mL (≈ 8.81 to 44 µM)	5 to 25 µg/mL (≈ 8.81 to 44 µM)	5 to 25 µg/mL (≈ 8.81 to 44 µM)	5 to 25 µg/mL (≈ 8.81 to 44 µM)	5 to 25 µg/mL (≈ 8.81 to 44 µM)			100 to 1000 nM		< 2000 nM	> 50%	SARS-CoV-2 Selectivity Indices, Group [11, 15]: D (Group D: SI > 25); SARS-CoV-2 Selectivity Index (SI) ([11]; SI, IC50 (μM)/IC50 (μM), HEK293 cytotoxicity, numeric value): 39; inhibition at 20 µM (Influenza (H1N1)): 25 to 50%; C. auris Selectivity Indices, Group (Candida auris (H.17.157); SI, IC50 (μM)/MIC99 (μg/mL), HEK293 cytotoxicity, Alkyl Amidines and NH Pyrroles): D (Group D SI > 3); C. auris Selectivity Index (SI) (Candida auris (H.17.157); SI, IC50 (μM)/MIC99 (μg/mL), HEK293 cytotoxicity, numeric value): 5
CN(C)c1ccc(/C=C/c2ccc(C(=O)Nc3cc(C(=O)Nc4c[nH]c(C(=O)NCCN5CCOCC5)c4)n(C)c3)cn2)cc1 [IIIb3, (E)-6-(4-(dimethylamino)styryl)-N-(1-methyl-5-((5-((2-morpholinoethyl)carbamoyl)-1H-pyrrol-3-yl)carbamoyl)-1H-pyrrol-3-yl)nicotinamide]		< 5 µM	> 100 µM		> 100 µM	31%	39%	> 50 µg/mL	> 50 µg/mL	25 to 50 µg/mL (≈ 40.9 to 81.9 µM)	> 50 µg/mL	> 50 µg/mL	> 50 µg/mL	> 50 µg/mL	> 50 µg/mL	> 50 µg/mL					
C/N=C(/CCNC(=O)c1cc(NC(=O)c2cc(NC(=O)c3ccc(/C=C/c4ccc5nonc5c4)cc3)cn2C)cn1C)NC [Ia6, 4-(4-((E)-2-(benzo[c][1,2,5]oxadiazol-5-yl)vinyl)benzamido)-1-methyl-N-(1-methyl-5-(((Z)-3-(methylamino)-3-(methylimino)propyl)carbamoyl)-1H-pyrrol-3-yl)-1H-pyrrole-2-carboxamide]		< 5 µM	< 5 µM		> 100 µM	3%	6%	< 5 µg/mL	< 5 µg/mL	< 5 µg/mL	< 5 µg/mL	5 to 25 µg/mL (≈ 8.23 to 41.1 µM)	> 50 µg/mL	< 5 µg/mL	< 5 µg/mL	< 5 µg/mL					
C/N=C(/CCNC(=O)c1cc(NC(=O)c2cc(NC(=O)c3ccc(/C=C/c4nc5ccccc5s4)cc3)cn2C)cn1C)NC [Ia11, 4-(4-((E)-2-(benzo[d]thiazol-2-yl)vinyl)benzamido)-1-methyl-N-(1-methyl-5-(((Z)-3-(methylamino)-3-(methylimino)propyl)carbamoyl)-1H-pyrrol-3-yl)-1H-pyrrole-2-carboxamide]		5 to 25 µM (≈ 3.11 to 15.6 µg/mL)	> 100 µM		> 100 µM			5 to 25 µg/mL (≈ 8.03 to 40.1 µM)	< 5 µg/mL	5 to 25 µg/mL (≈ 8.03 to 40.1 µM)		5 to 25 µg/mL (≈ 8.03 to 40.1 µM)	> 50 µg/mL	< 5 µg/mL		5 to 25 µg/mL (≈ 8.03 to 40.1 µM)			8000 to 32000 nM		
CC/N=C(\N)CCNC(=O)c1cc(NC(=O)c2cc(NC(=O)c3ccc(/C=C/c4ccc5nonc5c4)cc3)cn2C)cn1C [Ia12, N—((Z)-3-amino-3-(ethylimino)propyl)-4-(4-(4-((E)-2-(benzo[c][1,2,5]oxadiazol-5-yl)vinyl)benzamido)-1-methyl-1H-pyrrole-2-carboxamido)-1-methyl-1H-pyrrole-2-carboxamide]	C (Group C: 5 < SI <= 10)	5 to 25 µM (≈ 3.04 to 15.2 µg/mL)	< 5 µM	D (D: SI > 10)	> 100 µM	2%	2%		5 to 25 µg/mL (≈ 8.23 to 41.1 µM)	> 50 µg/mL				5 to 25 µg/mL (≈ 8.23 to 41.1 µM)			100 to 1000 nM	100 to 1000 nM	8000 to 32000 nM	10 to 25%	E. faecalis Selectivity Index (SI) ([2]; SI, IC50 (μM)/MIC80 (μM), HEK293 cytotoxicity, numeric value): 23; T. vaginalis Selectivity Indices, Group (T. vaginalis; [15]): B (Group B: 8 < SI <= 16); IC50 (T. vaginalis; Trichomonas vaginalis, read-out: IC50 T. vaginalis): 1000 to 5000 nM; inhibition at 20 µM [13]: > 50%; inhibition at 20 µM (Influenza (H1N1)): > 50%
